Test results as given in patent publication US11357786B2, “Synthetic disugar hydrocarbons as natural analogs to control microbial behaviors” (Syracuse University, priority 2014, dated 2022).

What was measured:
Type in all cases: cell-based, Pseudomonas aeruginosa
[1] = system: nonswarming P. aeruginosa mutant rhlA; test: Swarming motility of nonswarming rhlA mutant on soft agar (reactivation / agonist assay); settings: for Swarming motility of rhlA mutant: 85 μM in soft agar (0.5%); for Reactivation of swarming motility of rhlA mutant: concentration not given; for Concentration of activity reversal for swarming promotion of rhlA mutant (transition concentration): soft agar
Excerpt: Using nonswarming mutant to screen for swarming agonists and wild type P. aeruginosa for swarming antagonists. The transposon mutant, rhlA (genotype, rhlA-E08:ISphoA/hah)39 of P. aeruginosa (PAO1), that impairs the gene that is responsible for synthesizing rhamnolipids is completely incapable of a swarming motility. […] Based on this inference, a rhlA mutant was used in a swarming experiment to screen the saccharide-hydrocarbons for agonists that can reactivate the swarming motility of rhlA.
(§1) Swarm agar plates were based on M8 medium supplemented with 0.2% glucose, 0.5% casamino acid, 1 mM MgSO4 and […]. 17 For each set of experiment all the swarm plates were poured from same batch of agar and allowed to dry for 1 h before inoculation of bacteria. Bacterial culture (3 μl) (wild type PAO1 or rhlA mutant) with OD600 between […] was inoculated on the solidified agar plates. Swarm agar plates were incubated at 37° C. for 12 h and then incubated for additional 12 h at room temp. Chronological images of swarm plates were taken using a camera. To measure swarming area, sizes of the petridish in all swarming images were adjusted to a pre-assigned diameter and images were printed on copying paper (Xerox-business 4200). Weight of a 1 cm^2 copy paper square was roughly ˜8.0 mg. swarming images on the copy paper were cut and weighed, the swarm area was calculated by dividing the weight of image by weight of 1 cm^2 square (8 mg).
(§2) Swarm agar plates were made using M8 medium supplemented with 0.2% glucose, 0.5% casamino acid, 1 mM MgSO4 and solidified with 0.5% Bacto agar. 24 Bacterial culture with OD600 between 0.4 to 0.6 was inoculated as 3 μl aliquots. Swarm agar plates were incubated at 37° C. for 12 h and then incubated for additional 12 h at rt. For each set of experiment all the swarm plates were poured from same batch of agar and allowed to dry for 1 h before inoculation of bacteria.

wild type PAO1 = test: Swarming motility of wild type PAO1 on soft agar (antagonist assay); settings: for Swarming motility of wild type PAO1: 85 μM in soft agar; for Effect on PAO1 swarming: concentration not given; for Concentration of activity reversal for swarming inhibition of PAO1 (transition concentration): soft agar
Method: In contrast, the wild type P. aeruginosa produces the rhamnolipids and is capable of swarming on soft agar gel (˜0.5% agar). […] We note that saccharide hydrocarbons may also promote the swarming motility, but such promotions are less unambiguous than the inhibition for wild type PAO1. Such promotion will be unambiguous in the agonist assay using the nonswarming mutant rhlA.
as §1, §2

PAO1 biofilm = test: Crystal violet based static biofilm inhibition assay, DSHs in LB media (Examples 2 and 4); settings: for Inhibition of PAO1 biofilm formation (surface attached): 160 μM, 24 h, LB media, 160 µM; for Anti-biofilm activity (biofilm inhibition): concentration not given
Method: The ability of DSHs was tested to inhibit Pseudomonas aeruginosa adhesion, biofilm and to disperse pre-formed biofilm. To quantify the amount of PAO1/EGFP attached on the surface of micro titer plates with or without the synthesized DSHs, fluorescence emitted by green fluorescent proteins (GFP) was quantified (see supporting info for details). Crystal violet (CV) based static biofilm assay (see supporting info) was used to screen the anti-biofilm potencies of all synthesized agents. Both surface attached (SA) (FIG. 17) and total (SA+air-liquid interface) biofilm of P. aeruginosa was quantified. […] CV assays were also used to quantify the amount of P. aeruginosa biofilm remaining after dispersion experiments (FIG. 19). Initially, all agents were screen for anti-biofilm activities (both inhibition and dispersion) at 160 μM. […] All reported biofilm inhibition results are an average of 4 identical wells.
The effect that DSHs have on the adhesion of PAO1-EGFP on polystyrene surface (microtiter plate) was also examined. PAO1-EGFP is a P. aeruginosa strain that constitutively expresses green fluorescent protein. In the adhesion assays, PAO1-EGFP was grown in microtiter plate for 24-hours in LB-media with (160 μM) or without DSHs. After 24-hours, the fluorescent signal obtained from surface adhered PAO1-EGFP was measured. Percent reduction in fluorescence was calculated by comparing fluorescent signal from PAO1-EGFP grown in LB-media with the signal from wells that had DSHs (FIG. 29A). To study the effect of DSHs on biofilm formation, Pseudomonas aeruginosa (PAO1) was grown in LB-media with (160 μM) or without DSHs at 37° C. under static conditions within wells of microtiter plates. After 24 hours, the surface attached biofilms adhering to the bottom of the wells were stained with crystal-violet dye and the biofilm was quantified by measuring absorbance at 600 nm (OD600). […] Similar to inhibition, the surface attached biofilm after dispersion with DSHs was quantified with crystal-violet staining and absorbance measurement at 600 nm, except that for dispersion, biofilm was first grown for 1 day in just LB-media without any DSHs after which DSHs were added and plates were incubated for additional 24 hours followed by quantification (FIG. 29B).
Crystal violet (CV) based-biofilm inhibition assay. Inhibitory effect of all synthesized disaccharide hydrocarbons on biofilm formation of Pseudomonas aeruginosa (wild type PAO1) was determined by static biofilm inhibition assay using crystal violet staining. Overnight culture of PAO1 were sub cultured in LB media to OD600 of 0.01 and further the OD600 was allowed to reach ˜0.1. The bacterial sub-culture (200 μL) was then added into the wells of a microtiter plate. Predetermined concentrations of DSHs were added to respective wells containing sub culture by pipetting out fixed volume of sterile aqueous stock solutions (except DβL (7), SPOT, (15) and 2-ODαC (17), which were introduced as stocks prepared in H2O […] and EtOH (90:10) solutions). The microtiter plates were then wrapped in GLAD Press n′ Seal® (saran wrap) and further incubated under stationary conditions for 24 h at 37° C. After 24 h incubation, the culture media was discarded by pipetting carefully (without disrupting biofilm), the plate was then washed once with sterile water (200 μL) and allowed to dry at 37° C. for ˜30 mins. Microtiter plates were then stained with 0.1% aqueous solution of crystal violet (CV) (200 μL) at rt for ˜30 mins. Following this, the CV stain was removed and plate was again washed with sterile water (200 μL). Resultant CV stain in the well was then solubilized by adding 100 μL of 30% AcOH solution (in water) and mixing gently by pipetting.

Row | Compound | Swarming motility of rhlA mutant ([1]; 24 h) | Swarming motility of wild type PAO1 (wild type PAO1; 24 h) | Effect on PAO1 swarming (wild type PAO1) | Anti-biofilm activity (biofilm inhibition) (PAO1 biofilm) | other results
1 | CCCCCCCCCCC(CO[C@@H]1O[C@H](CO)[C@@H](O[C@H]2O[C@H](CO)[C@@H](O)[C@H](O)[C@H]2O)[C@H](O)[C@H]1O)Cc1cc(C)cc(C)c1 (stereo partly drawn) [3,5-DMBDβM, 3,5-dimethyl benzyl dodecyl β-maltoside] | long, straight and well-defined tendrils |  |  |  | 
2 | CCCCCCCCCCC(CO[C@@H]1O[C@H](CO)[C@@H](O[C@H]2O[C@H](CO)[C@@H](O)[C@H](O)[C@H]2O)[C@H](O)[C@H]1O)Cc1ccc(C)cc1 (stereo partly drawn) [4-MBDβM, 4-methyl benzyl dodecyl β-maltoside] | long, straight and well-defined tendrils |  |  |  | 
3 | CCCCCCCCC(CO[C@@H]1O[C@H](CO)[C@@H](O[C@H]2O[C@H](CO)[C@@H](O)[C@H](O)[C@H]2O)[C@H](O)[C@H]1O)Cc1ccc(C(C)(C)C)cc1 (stereo partly drawn) [4-tBuBDeβM, 4-tertiary butyl benzyl decyl β-maltoside] | swarming motility with without well-defined tendrils |  |  |  | 
4 | CCCCCCCCCCO[C@@H]1O[C@H](CO)[C@@H](O[C@H]2O[C@H](CO)[C@@H](O)[C@H](O)[C@H]2O)[C@H](O)[C@H]1O [DeβM, decyl β-matoside] | did not exhibit any significant activation of swarming |  |  |  | 
5 | CCCCCCCCCCCCO[C@H]1O[C@H](CO)[C@@H](O[C@@H]2O[C@H](CO)[C@@H](O)[C@H](O)[C@H]2O)[C@H](O)[C@H]1O [DαC (6), dodecyl-α-cellobioside] | no apparent reactivation of rhlA swarming | causing significant amount of tendril formation | induced tendril formation in the swarming pattern of PAO1 |  | 
6 | CCCCCCCCCCCCO[C@@H]1O[C@H](CO)[C@@H](O)[C@H](O)[C@H]1O [DβG (8), dodecyl-β-glucoside] | no apparent effect on rhlA | inhibited the swarming motility of wild type PAO1 |  | weak anti-biofilm activity | Inhibition of PAO1 biofilm formation (surface attached) (PAO1 biofilm; listed as 8: DβG): poor anti-biofilm activity; Anti-biofilm activity (biofilm inhibition) (PAO1 biofilm; listed as DOG (8)): did not show significant inhibition of PAO1 biofilm; Reactivation of swarming motility of rhlA mutant [1]: activated the swarming motility of rhlA mutant; Concentration of activity reversal for swarming promotion of rhlA mutant (transition concentration) [1]: ~35 to 50 µM; Concentration of activity reversal for swarming promotion of rhlA mutant (transition concentration) ([1]; listed as 8): 35 µM; Concentration of activity reversal for swarming inhibition of PAO1 (transition concentration) (wild type PAO1): ~50 to 60 µM; Concentration of activity reversal for swarming inhibition of PAO1 (transition concentration) (wild type PAO1; listed as 8): 35 to 50 µM
7 | CCCCCCCCCCCCO[C@@H]1O[C@H](CO)[C@@H](O[C@H]2O[C@H](CO)[C@@H](O)[C@H](O)[C@H]2O)[C@H](O)[C@H]1O [DβM (1), dodecyl-β-maltoside] | strong reactivation of the swarming motility in rhlA mutant | causing significant amount of tendril formation | induced tendril formation in the swarming pattern of PAO1 |  | Inhibition of PAO1 biofilm formation (surface attached) (PAO1 biofilm; listed as 1: DβM): 50%; Swarming motility of rhlA mutant ([1]; 24 h, listed as DβM): long, straight and well-defined tendrils; Swarming reactivation of rhlA mutant ([1]; 110 μM in soft agar, 24 h): fully restored the swarming of rhlA; Swarming of wild type PAO1 (wild type PAO1; 110 μM in soft agar, 24 h): did not significantly affect the swarm pattern
8 | CCCCCCCCCCCCCO[C@@H]1O[C@H](CO)[C@@H](O[C@@H]2O[C@H](CO)[C@@H](O)[C@H](O)[C@H]2O)[C@H](O)[C@H]1O [TβC (5), tridecyl-β-cellobioside] | no apparent reactivation of rhlA swarming | causing significant amount of tendril formation | induced tendril formation in the swarming pattern of PAO1 | did not show significant inhibition of PAO1 biofilm | Concentration of first inhibition of rhlA swarming [1]: around 50 μM; Concentration of another activation of rhlA swarming ([1]; after first inhibition): about 160 μM; Reactivation of swarming motility of rhlA mutant [1]: activated the swarming motility of rhlA mutant; Concentration of activity reversal for swarming promotion of rhlA mutant (transition concentration) [1]: ~40 µM; Concentration of activity reversal for swarming promotion of rhlA mutant (transition concentration) ([1]; listed as 5): 40 µM; Concentration at which tendrils were induced in PAO1 (wild type PAO1): 30 µM; Concentration of activity reversal for swarming inhibition of PAO1 (transition concentration) (wild type PAO1): ~20 to 30 µM
9 | C=CCCCCCCCCCO[C@@H]1O[C@H](CO)[C@@H](O[C@@H]2O[C@H](CO)[C@@H](O)[C@H](O)[C@H]2O)[C@H](O)[C@H]1O [UDβC (10), undecylenyl-β-cellobioside] | no significant effect on the swarming motility | no significant effect on the swarming motility | no apparent effect on PAO1 swarming | did not show anti-biofilm activities | Inhibition of PAO1 biofilm formation (surface attached) (PAO1 biofilm; listed as 10: UDβC): lesser potency than DSH with completely saturated aliphatic chain
10 | CCCCCCCCCCCO[C@@H]1O[C@H](CO)[C@@H](O[C@@H]2O[C@H](CO)[C@@H](O)[C@H](O)[C@H]2O)[C@H](O)[C@H]1O [UβC (3), undecyl-β-cellobioside] | strong reactivation of the swarming motility in rhlA mutant | causing significant amount of tendril formation | induced tendril formation in the swarming pattern of PAO1 | did not show significant inhibition of PAO1 biofilm | Reactivation of swarming motility of rhlA mutant [1]: activated the swarming motility of rhlA mutant
11 | CCCCCCCCCCCO[C@@H]1O[C@H](CO)[C@@H](O[C@H]2O[C@H](CO)[C@@H](O)[C@H](O)[C@H]2O)[C@H](O)[C@H]1O [UβM, undecyl β-maltoside] | swarming motility with without well-defined tendrils |  |  |  | 
12 | adamantane dodecyl β-maltoside [ADβM] | long, straight and well-defined tendrils |  |  |  | 
